The values that follow come from US20160002247A1, “8-SUBSTITUTED IMIDAZOPYRIMIDINONE DERIVATIVE HAVING AUTOTAXIN INHIBITORY ACTIVITY” (THE UNIVERSITY OF TOKYO, priority 2013, published 2016).

This test addresses T1, Human autotaxin enzyme (Homo sapiens, UniProt Q13822).
T1 construct: purchased R&D System
Kind of test: Evaluation of autotaxin inhibitor, Method C (Test Example 3): 18:0 Lyso PC, choline assay, Resorufin fluorescence. Type of test: biochemical. As to conditions: Assay Method C, human autotaxin, 18:0 Lyso PC substrate; read-out: Inhibitory Activity. The essentials:
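Human autotaxin in Tris-HCl pH 7.5, 150 mM NaCl, 5 mM MgCl2, 0.05% Triton X-100 reacted 2 h at room temperature with 18:0 Lyso PC (200 μM solution added). Released choline detected via choline oxidase/peroxidase/Amplex-type reagent, resorufin fluorescence (ex 531/em 598 nm); inhibition vs no-compound and no-enzyme controls, concentration-response curve.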
In the case of `CCCCCn1c(N2CCC[C@H]2C(=O)Nc2ccccc2-c2nn[nH]n2)cc(=O)n2cc(-c3ccc(Cl)cc3)nc12` [Compound 791], the IC50 was in the range of 100 to 1000 nM.
To `CCCCCn1c(N2CCC[C@H]2C(=O)NC[C@H](O)C(F)(F)F)cc(=O)n2cc(-c3ccc(Cl)cc3)nc12` [Compound 792] belongs 100 to 1000 nM; to `CCCCCn1c(N2CCC[C@H]2C(=O)Nc2ccc(O)c(OC)c2)cc(=O)n2cc(-c3ccc(Cl)cc3)nc12` [Compound 793], 100 to 1000 nM; to `CCCCCn1c(N2CCC[C@H]2C(=O)Nc2nonc2OC)cc(=O)n2cc(-c3ccc(Cl)cc3)nc12` [Compound 794], 10 to 100 nM.
As for `CCCCCn1c(N2CCC[C@H]2C(=O)NCc2nn[nH]n2)cc(=O)n2cc(-c3ccc(Cl)cc3)nc12` [Compound 795], the IC50 was under 10 nM.
`CCCCCn1c(N2CCC[C@H]2C(=O)Nc2ccc(Oc3nn[nH]n3)cc2)cc(=O)n2cc(-c3ccc(Cl)cc3)nc12` [Compound 796]: the IC50 was 100 to 1000 nM.
Next, `CCCCCn1c(N2CCC[C@H]2C(=O)N[C@@H](CC(C)C)C(N)=O)cc(=O)n2cc(-c3ccc(Cl)cc3)nc12` [Compound 797]: 10 to 100 nM; `CCCCCn1c(N2CCC[C@H]2C(=O)Nc2ccc(OC)c(O)c2)cc(=O)n2cc(-c3ccc(Cl)cc3)nc12` [Compound 798]: 100 to 1000 nM; `CCCCCn1c(N2CCC[C@H]2C(=O)Nc2cc(O)no2)cc(=O)n2cc(-c3ccc(Cl)cc3)nc12` [Compound 799]: 10 to 100 nM.
Consider `CCCCCn1c(N2CCC[C@H]2C(=O)NC(C)C(O)C(F)(F)F)cc(=O)n2cc(-c3ccc(Cl)cc3)nc12` (stereo partly shown) [Compound 800], for which the IC50 was in the range of 10 to 100 nM.
To `CCCCCn1c(N2CCC[C@H]2C(=O)Oc2cc(N)ccc2OC)cc(=O)n2cc(-c3ccc(Cl)cc3)nc12` [Compound 801] belongs 100 to 1000 nM.
As to `CCCCCn1c(N2CCCCC2CC)cc(=O)n2cc(-c3ccc(Cl)cc3)nc12` (stereo not shown) [Compound 802], the IC50 is over 1000 nM.
Turning to `CCCCCn1c(N2CCCCC2c2ccccc2)cc(=O)n2cc(-c3ccc(Cl)cc3)nc12` (stereo not shown) [Compound 803], the IC50 was over 1000 nM.
`CCCCCn1c(N2CCCC(C)(C)C2)cc(=O)n2cc(-c3ccc(Cl)cc3)nc12` [Compound 804]: the IC50 was over 1000 nM.
Next, `CCCCCn1c(N2CCCCC2CCN2CCOCC2)cc(=O)n2cc(-c3ccc(Cl)cc3)nc12` (stereo not shown) [Compound 805]: 100 to 1000 nM; `CCCCCn1c(N2CCCCC2CNC(=O)OC(C)(C)C)cc(=O)n2cc(-c3ccc(Cl)cc3)nc12` (stereo not shown) [Compound 806]: over 1000 nM; `C#CCNC(=O)C1CCCCN1c1cc(=O)n2cc(-c3ccc(Cl)cc3)nc2n1CCCCC` (stereo not shown) [Compound 807]: 10 to 100 nM.
In the case of `CCCCCn1c(N2CCCC[C@@H]2C)cc(=O)n2cc(-c3ccc(Cl)cc3)nc12` [Compound 808], the IC50 is over 1000 nM.
Consider `CCCCCn1c(N2CCCC(C(=O)O)C2C)cc(=O)n2cc(-c3ccc(Cl)cc3)nc12` (stereo not shown) [Compound 809], for which the IC50 was 100 to 1000 nM.
`CCCCCn1c(N2CC3CC3C2)cc(=O)n2cc(-c3ccc(Cl)cc3)nc12` (stereo not shown) [Compound 810]: the IC50 lay in the range of 100 to 1000 nM.
On to `CCCCCn1c(N2CCC[C@@H](C)C2)cc(=O)n2cc(-c3ccc(Cl)cc3)nc12` [Compound 811], for which the IC50 was over 1000 nM.
To `CCCCCn1c(N2CCC[C@H](C)C2)cc(=O)n2cc(-c3ccc(Cl)cc3)nc12` [Compound 812] belongs 100 to 1000 nM.
To `CCCCCn1c(N2CCC[C@@H](c3ccccc3)C2)cc(=O)n2cc(-c3ccc(Cl)cc3)nc12` [Compound 813] belongs over 1000 nM; to `CCCCCn1c(N2CCCC[C@H]2C)cc(=O)n2cc(-c3ccc(Cl)cc3)nc12` [Compound 814], 100 to 1000 nM.
For the compound `CCCCCn1c(N2CCC[C@H]2C(=O)NC(C(=O)O)C(F)(F)F)cc(=O)n2cc(-c3ccc(Cl)cc3)nc12` (stereo partly shown) [Compound 815], the IC50 is under 10 nM.
To `CCCCCn1c(N2CCC[C@H]2C(=O)NCC(=O)OC)cc(=O)n2cc(-c3ccc(Cl)cc3)nc12` [Compound 816] belongs 10 to 100 nM; to `CCCCCn1c(-c2ccc(C(=O)NCCNCCO)cc2)cc(=O)n2cc(-c3ccc(Cl)cc3)nc12` [Compound 817], under 10 nM; to `Cn1cc(Cc2cccc(C(=O)O)c2)c(=O)n2cc(-c3ccc(Cl)cc3)nc12` [Compound 819], 100 to 1000 nM.
Next, `CCCCCn1cc(Cc2cccc(C(=O)O)c2)c(=O)n2cc(-c3ccc(Cl)cc3)nc12` [Compound 820]: 10 to 100 nM; `CCOC(=O)c1cccc(Cc2cn(CCCCC#N)c3nc(-c4ccc(Cl)cc4)cn3c2=O)c1` [Compound 821]: 100 to 1000 nM.
Take `CCOC(=O)c1cccc(Cc2cn(CC3CC3)c3nc(-c4ccc(Cl)cc4)cn3c2=O)c1` [Compound 822]: the IC50 was over 1000 nM.
On to `O=C(O)c1cccc(Cc2cn(CC3CC3)c3nc(-c4ccc(Cl)cc4)cn3c2=O)c1` [Compound 823], for which the IC50 was 10 to 100 nM.
Next, `N#CCCCCn1cc(Cc2cccc(C(=O)O)c2)c(=O)n2cc(-c3ccc(Cl)cc3)nc12` [Compound 824]: under 10 nM; `CCCCC(C(C)=O)n1cc(Cc2cccc(C(=O)O)c2)c(=O)n2cc(-c3ccc(Cl)cc3)nc12` (stereo not shown) [Compound 825]: over 1000 nM.
Regarding `O=C(O)c1cccc(Cc2cn(CCCC(F)(F)F)c3nc(-c4ccc(Cl)cc4)cn3c2=O)c1` [Compound 826], the IC50 was in the range of 10 to 100 nM.
To `O=C(O)Cc1cn(CCCC(F)(F)F)c2nc(-c3ccc(Cl)cc3)cn2c1=O` [Compound 827] belongs over 1000 nM.
For `CCOC(=O)Cc1cn(CCCC(F)(F)F)c2nc(-c3ccc(Cl)cc3)cn2c1=O` [Compound 828], the IC50 was over 1000 nM.
Next, `N#CCNC(=O)Cc1cn(CCCC(F)(F)F)c2nc(-c3ccc(Cl)cc3)cn2c1=O` [Compound 829]: 100 to 1000 nM.
For the compound `N#CCCNC(=O)Cc1cn(CCCC(F)(F)F)c2nc(-c3ccc(Cl)cc3)cn2c1=O` [Compound 830], the IC50 was 100 to 1000 nM.
For `CN(CCC#N)C(=O)Cc1cn(CCCC(F)(F)F)c2nc(-c3ccc(Cl)cc3)cn2c1=O` [Compound 831], the IC50 was in the range of 100 to 1000 nM.
To `N#CCCCNC(=O)Cc1cn(CCCC(F)(F)F)c2nc(-c3ccc(Cl)cc3)cn2c1=O` [Compound 832] belongs over 1000 nM.
`O=C(Cc1cn(CCCC(F)(F)F)c2nc(-c3ccc(Cl)cc3)cn2c1=O)N(CCO)CCO` [Compound 833]: the IC50 is over 1000 nM.
In the case of `CN(CC#N)C(=O)Cc1cn(CCCC(F)(F)F)c2nc(-c3ccc(Cl)cc3)cn2c1=O` [Compound 834], the IC50 is 100 to 1000 nM.
Next, `N#CNC(=O)Cc1cn(CCCC(F)(F)F)c2nc(-c3ccc(Cl)cc3)cn2c1=O` [Compound 835]: over 1000 nM; `CC1CCCCN1C(=O)Cc1cn(CCCC(F)(F)F)c2nc(-c3ccc(Cl)cc3)cn2c1=O` (stereo not shown) [Compound 836]: 10 to 100 nM.
To `NC(=O)C1CCN(C(=O)Cc2cn(CCCC(F)(F)F)c3nc(-c4ccc(Cl)cc4)cn3c2=O)CC1` [Compound 837] belongs over 1000 nM; to `O=C(Cc1cn(CCCC(F)(F)F)c2nc(-c3ccc(Cl)cc3)cn2c1=O)N1CCC(O)CC1` [Compound 838], over 1000 nM; to `N#CCN(CC#N)C(=O)Cc1cn(CCCC(F)(F)F)c2nc(-c3ccc(Cl)cc3)cn2c1=O` [Compound 839], 100 to 1000 nM.
Turning to `CC(C)(C)OC(=O)NCCNC(=O)Cc1cn(CCCC(F)(F)F)c2nc(-c3ccc(Cl)cc3)cn2c1=O` [Compound 840], the IC50 was in the range of 100 to 1000 nM.
